Series [1] deals with Klebsiella pneumonia (ATCC 13883). Description: Agar diffusion antibacterial screening (inhibition zone). As to conditions: Klebsiella pneumoniae, ATCC13883, K. pneumonia, 1 mg/mL, Mueller–Hinton agar, read-out: Diameter of inhibition zone. Format: cell-based. On the procedure: (§1) The antibacterial activity of β-enamionitriles (4a-q) was screened using Mueller–Hinton agar medium for bacteria in an agar diffusion methodology. Ciprofloxacin (1 mg/mL) was the reference antibiotic drug used in the analysis of collections that included four gram-positive species of multi drug resistant pathogenic bacteria: Staphylococcus aureus (MRSA) (ATCC 6539), Staphylococcus aureus (ATCC 6538), Bacillus cereus (ATCC 10987), Bacillus subtilis (ATCC 6633), and two gram-negative species of multi drug resistant pathogenic bacteria Klebsiella pneumonia (ATCC 13883) and Escherichia coli (ATCC 8739). […] Using a 1 mg/mL concentration of compounds (4a-q), the minimum zone of inhibition (IZ, the area around the antimicrobial agent where bacterial growth is prevented) was established in mm ± standard deviation beyond the well diameter (6 mm). […] The synthetic compound's inhibitory effects on evaluation against these organisms are depicted in Fig. 9 and Table 1.
(§2) Compound 4a-q was screened for its in vitro antimicrobial activities against pathogenic bacteria species using the standard antibiotics Ampicillin, Gentamycin and Ketoconazole as reference drugs as reported previously. The minimum inhibitory concentration (MIC) was determined as previously reported. The antimicrobial activities were performed at the Regional Centre for Mycology & Biotechnology (RCMP), Al-Azhar University.
Background: Agar diffusion results depend on both activity and mobility in agar.

The subject of series [2] is Bacillus subtilis (ATCC 6633). Described as above. Format: cell-based. The following applies: ATCC6633, B. subtilis, 1 mg/mL, Mueller–Hinton agar, read-out: Diameter of inhibition zone. On the procedure:
as §1, §2

Series [3] has as its system Escherichia coli (ATCC 8739). The description is as above. It counts as cell-based. As to conditions: ATCC8739, E. coli, 1 mg/mL, Mueller–Hinton agar, read-out: Diameter of inhibition zone. On the procedure: as §1, §2
For series [4], the system named is Staphylococcus aureus (ATCC 6538). The series is described as above. Format: cell-based. As to conditions: ATCC6538, S. aureus, 1 mg/mL, Mueller–Hinton agar, read-out: Diameter of inhibition zone. How it is done:
as §1, §2

Series [5] concerns Staphylococcus aureus (MRSA) (ATCC 6539). Described as above. Format: cell-based. As to conditions: read-out: Diameter of inhibition zone. On the procedure: as §1, §2
For series [6], the system named is Bacillus cereus (ATCC 10987). The series is described as above. It counts as cell-based. As to conditions: ATCC10987, B. cereus, 1 mg/mL, Mueller–Hinton agar, read-out: Diameter of inhibition zone. On the procedure: as §1, §2
Series [7] has as its system HepG-2 (hepatocellular carcinoma). The experiment in a line: MTT cytotoxicity assay. Format: cell-based. The following applies: Homo sapiens, HepG2, MTT, 24-h incubation, mean ± standard error, read-out: IC50 Cancerotoxicity HepG-2.
Description: (§3) The antiproliferative activity of the newly synthesized 1H-benzo[f]chromenes derivatives (4a-q) was examined in three human cancer cell lines: MCF-7 (breast cancer), HCT-116 (human colon cancer), and HepG-2 (hepatocellular carcinoma), as well as the two normal cell lines, HFL-1 (human foetal lung) and WI-38 (human diploid fibroblasts), using the 3-(4,5-dimethylthiazol-2-yl)-2,5-diphenyl tetrazolium bromide (MTT) colorimetric assay[56].
(§4) Compounds 4a-q was initially evaluated for in vitro antitumor activity against three different human cell lines: MCF-7, HCT-116 and HepG-2. In-vitro cytotoxicity evaluation was performed at the Regional Center for Mycology & Biotechnology (RCMP), Al-Azhar University under different concentrations (50, 25, 12.5, 6.25, 3.125, 1.56 and 0 µg/mL); vinblastine and doxorubicin are used as reference cytotoxic compounds.
Series [8] deals with MCF-7 (breast cancer). The experiment in a line: MTT cytotoxicity assay. The following applies: Homo sapiens, MCF7, 24 h, read-out: IC50 Cancerotoxicity MCF-7. For orientation: Tetrazolium dyes change colour on reduction, which living cells bring about.
Description: as §3, §4
Series [9] has as its system HCT-116 (human colon cancer). Description: MTT cytotoxicity assay. It counts as cell-based. The following applies: MTT, 24-h incubation, mean ± standard error, read-out: IC50 Cancerotoxicity HCT-116.
Description: as §3, §4

The structures appear in SMILES notation.

The term melting point denotes the temperature of the solid-liquid transition. For orientation: zone of inhibition means the size of the clear area around the sample on an inoculated plate. By IC50 is commonly meant the concentration that gives 50% inhibition.

Turning to `N#CC(C#N)=Cc1ccc(Cl)cc1`, the melting point was 162 to 163 °C.
As to `O=C(O)c1cn(C2CC2)c2cc(N3CCNCC3)c(F)cc2c1=O` [Ciprofloxacin, reference compound], the zone of inhibition at 1000 µg/mL came to 0 mm in series [1]; 0 mm in [2]; 25 mm in series [3]; 0 mm in series [4]; 0 mm in series [5]; 22 mm in series [6].
In turn, `COc1ccc2c3c(ccc2c1)OC(N)=C(C#N)C3c1ccc(I)cc1` (stereo not drawn) [Compound 4f, 3-Amino-1-(4-iodophenyl)-8-methoxy-1H-benzo[f]chromene-2-carbonitrile] registered a melting point of 227 to 228 °C. In addition, the IC50 in [7] worked out at 39.2 ± 0.2 µM. For the same molecule, the zone of inhibition at 1000 µg/mL in [1] was 9 mm. The zone of inhibition at 1000 µg/mL in series [2] stood at 8 mm. Further, the zone of inhibition at 1000 µg/mL in [3] was determined as 0 mm. For the same molecule, in series [4], the zone of inhibition at 1000 µg/mL worked out at 0 mm. The zone of inhibition at 1000 µg/mL in [5] was 12 mm. Further, in series [6], the zone of inhibition at 1000 µg/mL was 15 mm. The IC50 in [8] stood at 48.5 ± 0.1 µM. Further, in series [9], the IC50 stood at 27.8 ± 0.3 µM.
Consider `COc1ccc2c3c(ccc2c1)OC(N)=C(C#N)C3c1c(F)cccc1F` (stereo not drawn) [Compound 4h, 3-Amino-1-(2,6-difluorophenyl)-8-methoxy-1H-benzo[f]chromene-2-carbonitrile], for which the melting point was in the range of 295 to 296 °C. For the same molecule, the IC50 in [7] was found to be 48.1 ± 0.2 µM. For the same molecule, in series [1], the zone of inhibition at 1000 µg/mL came out at 10 mm. Further, in [2], the zone of inhibition at 1000 µg/mL is 0 mm. In series [3], the zone of inhibition at 1000 µg/mL was found to be 0 mm. Moreover, in series [4], the zone of inhibition at 1000 µg/mL came out at 9 mm. Besides, the zone of inhibition at 1000 µg/mL in [5] amounted to 13 mm. The zone of inhibition at 1000 µg/mL in [6] amounted to 9 mm. Also, in [8], the IC50 worked out at 60.2 ± 0.3 µM. Besides, in series [9], the IC50 is 33.8 ± 0.12 µM.
`COc1ccc2c3c(ccc2c1)OC(N)=C(C#N)C3c1cc(Cl)ccc1Cl` (stereo not drawn) [Compound 4k, 3-Amino-1-(2,5-dichlorophenyl)-8-methoxy-1H-benzo[f]chromene-2-carbonitrile]: the melting point was in the range of 270 to 271 °C. Moreover, the IC50 in series [7] worked out at 1.8 ± 0.03 µM. In addition, the zone of inhibition at 1000 µg/mL in series [1] is 15 mm. Further, the zone of inhibition at 1000 µg/mL in [2] is 0 mm. In addition, the zone of inhibition at 1000 µg/mL in series [3] was 13 mm. For the same molecule, in series [4], the zone of inhibition at 1000 µg/mL was determined as 0 mm. For the same molecule, the zone of inhibition at 1000 µg/mL in series [5] was 12 mm. Besides, the zone of inhibition at 1000 µg/mL in [6] turned out to be 0 mm. For the same molecule, the IC50 in series [8] was found to be 6.6 ± 0.4 µM. Further, the IC50 in [9] stood at 2.5 ± 0.23 µM.
In turn, `COc1ccc2c3c(ccc2c1)OC(N)=C(C#N)C3c1c(Cl)cccc1Cl` (stereo not drawn) [Compound 4l] registered a melting point of 313 to 314 °C. In addition, the IC50 in [7] stood at 2.3 ± 0.02 µM. The zone of inhibition at 1000 µg/mL in series [1] was found to be 14 mm. Moreover, the zone of inhibition at 1000 µg/mL in [2] turned out to be 0 mm. In addition, in series [3], the zone of inhibition at 1000 µg/mL was found to be 0 mm. Also, in series [4], the zone of inhibition at 1000 µg/mL turned out to be 0 mm. Besides, the zone of inhibition at 1000 µg/mL in series [5] worked out at 13 mm. Further, the zone of inhibition at 1000 µg/mL in [6] stood at 8 mm. In addition, the IC50 in [8] came to 12.1 ± 0.06 µM. In addition, in [9], the IC50 was 21.3 ± 0.01 µM.
Consider `COc1ccc2c3c(ccc2c1)OC(N)=C(C#N)C3c1ccc(OC)c(OC)c1OC` (stereo not drawn) [Compound 4o, 3-amino-1-(2,3,4-trimethoxyphenyl)-8-methoxy-1H-benzo[f]chromene-2-carbonitrile], for which the melting point was 240 to 241 °C. In addition, in series [7], the IC50 was found to be 17.6 ± 0.05 µM. Also, the zone of inhibition at 1000 µg/mL in series [1] turned out to be 11 mm. Also, the zone of inhibition at 1000 µg/mL in series [2] turned out to be 0 mm. The zone of inhibition at 1000 µg/mL in series [3] was found to be 12 mm. Also, the zone of inhibition at 1000 µg/mL in [4] turned out to be 10 mm. Besides, in series [5], the zone of inhibition at 1000 µg/mL amounted to 12 mm. Moreover, the zone of inhibition at 1000 µg/mL in [6] amounted to 14 mm. Further, the IC50 in [8] worked out at 55.3 ± 0.01 µM. Further, in series [9], the IC50 was found to be 35.9 ± 0.02 µM.
